These compounds were tested against T1, VirF (Shigella flexneri, UniProt P0A2T1) (assay: ELISA, fatty acid coated on plate, His-VirF detected by anti-His antibody). Details: read-out: apparent Kd.
T1 construct: full ORF in pET15b, His-tagged (tag apparently kept)
T1 sequence (P0A2T1 whole entry): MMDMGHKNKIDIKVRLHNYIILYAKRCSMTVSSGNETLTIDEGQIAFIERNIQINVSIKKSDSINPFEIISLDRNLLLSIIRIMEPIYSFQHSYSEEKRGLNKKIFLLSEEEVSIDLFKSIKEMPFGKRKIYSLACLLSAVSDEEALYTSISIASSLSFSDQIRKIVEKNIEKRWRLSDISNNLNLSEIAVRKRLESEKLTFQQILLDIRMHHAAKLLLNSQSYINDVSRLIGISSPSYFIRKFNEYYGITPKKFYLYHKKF
Format: binding
Work on `CCCCCC/C=C\CCCCCCCC(=O)O` [palmitoleic acid] yielded a Kd of 12.9 µM. With `CCCCCCCCCCCCC/C=C/C(=O)O` [t2-HDA] the Kd was 9.5 µM. `CCCCCCCCCCCCCCCCC/C=C\C(=O)O` [c2-EA] showed a Kd of 11.2 µM. `CCCCCCCCCCCCC/C=C\C(=O)O` [c2-HDA] gave a Kd of 8.2 µM. Work on `CCCCCCCC/C=C\CCCCCCCC(=O)O` [oleic acid] yielded a Kd of 14.3 µM.

Reference: PMC10519361, “Shigella flexneri utilizes intestinal signals to control its virulence” (Gut Microbes, 2023)
